From patent publication US11313861B2, “Method of evaluating hepatic glucose uptake capacity” (OTSUKA PHARMACEUTICAL CO., LTD., priority 2016, dated 2022)

Experiments:
[1] = Blood ^13C6-glucose level and expired air Δ^13C after oral ^13C6-glucose, iLIRKO vs IRflox mice; assay type: in vivo, mouse
Excerpt: iLIRKO mouse (inducible liver-specific insulin receptor KO mice) can be used as a model for stage B of pre-onset diabetes, the stage of decreased hepatic extraction ratio, because knock out of insulin receptors can be induced only in the liver (Michael M D, et al., Loss of insulin signaling in hepatocytes leads to severe insulin resistance and progressive hepatic dysfunction. Mol Cell 2000; 6 (1): 87-97). To iLIRKO mice (2 to 3 months old, n=5) and IRflox mice (2 to 3 months old, n=5, control) 10 mg/kg of ^13C6-glucose was orally administered. Blood samples and expired air samples were collected over time before and after the administration. The Δ^13C values of the obtained expired air samples were measured by GC/MS. The ^13C6-glucose levels in the blood samples were measured by LC/MS/MS.

[2] = rat, in vivo, 10 mg/kg
Description: To unfasted ZDF fatty rats (18 weeks old; n=6), ZDF lean rats (18 weeks old; n=6) and SD rats (14 weeks old; n=3) 10 mg/kg of ^13C6-glucose was orally administered. Expired air samples were collected over time before and after the administration and the Δ^13C values of the samples were measured by GC/MS. Three days after the oral administration, 10 mg/kg of ^13C6-glucose was intravenously administered to the same unfasted rats. Expired air samples were collected over time before and after the administration and the Δ^13C values of the samples were measured by GC/MS.
The AUCs of the Δ^13C values were calculated for the oral administration and the intravenous administration, and the difference of the AUCs was calculated. The difference is shown in FIG. 5 as the amount of hepatic glucose uptake (hepatic extraction). […] The mutation is homozygous in the ZDF fatty rats.

[3] = rat, in vivo, po, 10 mg/kg
Description: To unfasted rats (ZDF lean, ZDF fatty, SD, each n=12) 10 mg/kg of ^13C6-glucose was orally administered. […] The blood ^13C6-glucose level was measured by LC/MS/MS.

[4] = Blood ^13C6-glucose level and expired air Δ^13C after oral ^13C6-glucose, 6-week-old ZDF fatty vs ZDF lean rats; assay type: in vivo, rat
Description: (§1) To fasted ZDF fatty rats (6 weeks old; n=4) and ZDF lean rats (6 weeks old; n=4) 10 mg/kg of ^13C6-glucose (13C6-Glucose [D-GLUCOSE⋅(U-13C6, 99%)], Cambridge Isotope Laboratories, Inc. (Andover, Mass., USA)) was orally administered. Blood samples and expired air samples were collected over time before and after the administration. The Δ^13C values of the obtained expired air samples were measured by GC/MS. The ^13C6-glucose levels in the blood samples were measured by LC/MS/MS. The fasting blood glucose levels were measured before the glucose administration.

[5] = Blood ^13C6-glucose level and expired air Δ^13C after oral ^13C6-glucose, 7-week-old ZDF fatty vs ZDF lean rats; assay type: in vivo, rat
Description: as §1, with “(7” for “(6”, “^13C6-glucose” for “^13C6-glucose (13C6-Glucose [D-GLUCOSE⋅(U-13C6, 99%)], Cambridge Isotope Laboratories, Inc. (Andover, Mass., USA))”

Question: Which results are given for OC[C@H]1OC(O)[C@H](O)[C@@H](O)[C@@H]1O (stereo partly drawn) [^13C6-glucose, D-GLUCOSE⋅(U-13C6, 99%)]?
Answer: blood ^13C6 glucose levels ([1]; iLIRKO mice vs IRflox mice, 10 mg/kg oral, LC/MS/MS): kept higher than those of IRflox mice; Δ^13C values of the expired air samples ([1]; mouse, in vivo, po, 10 mg/kg): kept higher than those of IRflox mice; amount of hepatic glucose uptake (hepatic extraction), difference of the AUCs of Δ^13C between oral and intravenous administration [2]: high in order of the SD rats, the ZDF lean rats, and the ZDF fatty rats; hepatic extraction ratio of ^13C6-glucose [3]: high in order of the SD rats, the ZDF lean rats, and the ZDF fatty rats; blood ^13C6 glucose levels ([4]; fasted 6-week-old ZDF fatty rats vs ZDF lean rats, 10 mg/kg oral, LC/MS/MS): remained lower than those of the ZDF Lean rats; Δ^13C values of the expired air samples ([4]; rat, in vivo, po, 10 mg/kg): kept higher than those of the ZDF lean rats; blood ^13C6 glucose levels ([5]; fasted 7-week-old ZDF fatty rats vs ZDF lean rats, 10 mg/kg oral, LC/MS/MS): remained higher than those of the ZDF Lean rats; Δ^13C values of the expired air samples ([5]; rat, in vivo, po, 10 mg/kg): kept higher than those of the ZDF lean rats
